This passage reports Kv1.5% inhibition, inhibition and IC50 results from patent US7507730B2, “Substituted pyrazolo[1,5-a]pyrimidines as potassium channel activators” (Bristol-Myers Squibb Company, priority 2005, dated 2009).

Kv1.5, sequence (P22460 whole entry): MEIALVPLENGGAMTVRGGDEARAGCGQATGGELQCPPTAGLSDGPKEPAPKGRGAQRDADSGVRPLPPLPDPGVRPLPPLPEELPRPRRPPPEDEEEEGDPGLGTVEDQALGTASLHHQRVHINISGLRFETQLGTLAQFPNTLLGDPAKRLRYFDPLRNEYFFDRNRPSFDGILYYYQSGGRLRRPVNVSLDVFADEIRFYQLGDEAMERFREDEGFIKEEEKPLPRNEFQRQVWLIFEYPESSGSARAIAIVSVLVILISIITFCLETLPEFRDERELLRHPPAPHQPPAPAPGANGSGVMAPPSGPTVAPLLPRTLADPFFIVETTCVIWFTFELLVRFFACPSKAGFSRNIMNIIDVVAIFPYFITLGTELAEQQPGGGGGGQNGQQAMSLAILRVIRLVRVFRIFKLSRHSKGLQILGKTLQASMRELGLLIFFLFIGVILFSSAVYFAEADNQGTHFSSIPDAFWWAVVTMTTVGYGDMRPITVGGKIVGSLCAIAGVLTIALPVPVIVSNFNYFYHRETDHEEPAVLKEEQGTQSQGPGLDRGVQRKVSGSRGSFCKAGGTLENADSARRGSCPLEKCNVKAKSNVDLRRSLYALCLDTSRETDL

One assay addresses Kv1.5 (Homo sapiens, UniProt P22460). In words: Kv1.5 inhibition assay (IKur inhibitor assay per cited references). The format is cell-based. The conditions noted are these: at 0.3 μM. From the text: Assays to determine the degree of activity of a compound as an IKur inhibitor are well known in the art and are described in references such as J. Gen. Physiol. Apr.; 101 (4):513-43, and Br. J. Pharmacol. 1995 May; 115(2):267-74.
`COc1ccc(S(=O)(=O)C2=C(CO)Nc3cc(C(F)(F)F)nn3C2c2ccc(Cl)cc2)cc1` (single isomer, unassigned) [Example 49 Isomer 1, (7-(4-Chlorophenyl)-6-(4-methoxyphenylsulfonyl)-2-(trifluoromethyl)-4,7-dihydropyrazolo[1,5-a]pyrimidin-5-yl)methanol] showed a Kv1.5% inhibition of 19.6%.
As for `CC1=C(C(=O)N(C)S(=O)(=O)c2c(C)noc2C)C(c2ccc(Cl)c(Cl)c2)n2nc(C)cc2N1` (single isomer, unassigned) [Example 94 Isomer 2, 7-(3,4-Dichlorophenyl)-N-(3,5-dimethylisoxazol-4-ylsulfonyl)-N,2,5-trimethyl-4,7-dihydropyrazolo[1,5-a]pyrimidine-6-carboxamide], the Kv1.5% inhibition amounted to 63%.
`CC1=C(S(=O)(=O)NC(C)(C)C)C(c2ccc(Cl)c(Cl)c2)n2nc(C(F)(F)F)cc2N1` (single isomer, unassigned) [Example 58 Isomer 2, N-tert-Butyl-7-(3,4-dichlorophenyl)-5-methyl-2-(trifluoromethyl)-4,7-dihydropyrazolo[1,5-a]pyrimidine-6-sulfonamide] had a Kv1.5% inhibition of 37.7%.
Compound `CC1=C(S(=O)(=O)NCc2ccccc2)C(c2ccc(Cl)c(Cl)c2)n2nc(C(F)(F)F)cc2N1` (single isomer, unassigned) [Example 56 Isomer 2, N-Benzyl-7-(3,4-dichlorophenyl)-5-methyl-2-(trifluoromethyl)-4,7-dihydropyrazolo[1,5-a]pyrimidine-6-sulfonamide] yielded a Kv1.5% inhibition of 37.5%.
For orientation: inhibition means the relative decrease from the control value, in per cent. A lower inhibition goes with little suppression. As for `CC1=C(S(=O)(=O)c2ccc(Cl)cc2)C(c2ccc(Cl)c(Cl)c2)n2nc(C(F)(F)F)cc2N1` (single isomer, unassigned) [Example 4 Isomer 2, 6-(4-Chlorophenylsulfonyl)-7-(3,4-dichlorophenyl)-5-methyl-2-(trifluoromethyl)-4,7-dihydropyrazolo[1,5-a]pyrimidine], testing at 0.3 µM gave an inhibition of 36.2%.
`CC1=C(S(=O)(=O)c2ccc(Cl)cc2)C(CC(C)C)n2nc(C(F)(F)F)cc2N1` (single isomer, unassigned) [Example 45 Isomer 2, 6-(4-Chlorophenylsulfonyl)-7-isobutyl-5-methyl-2-(trifluoromethyl)-4,7-dihydropyrazolo[1,5-a]pyrimidine] showed an inhibition at 0.3 µM of 48%.
Regarding `CC1=C(S(=O)(=O)c2ccc(Cl)cc2)C(c2cc3ccccc3n2C)n2nc(C(F)(F)F)cc2N1` (racemic) [Example 72, 6-(4-Chlorophenylsulfonyl)-5-methyl-7-(1-methyl-1H-indol-2-yl)-2-(trifluoromethyl)-4,7-dihydropyrazolo[1,5-a]pyrimidine], the inhibition at 0.3 µM is 34%.
Consider `CC1=C(S(=O)(=O)c2ccccn2)C(c2ccc(Cl)c(Cl)c2)n2nc(C)cc2N1` (single isomer, unassigned) [Example 11 Isomer 1, 7-(3,4-Dichlorophenyl)-2,5-dimethyl-6-(pyridin-2-ylsulfonyl)-4,7-dihydropyrazolo[1,5-a]pyrimidine], for which the Kv1.5% inhibition is 72.5%.
Compound `COc1ccc(S(=O)(=O)N(C)C(=O)C2=C(C)Nc3cc(C)nn3C2c2ccc(Cl)c(Cl)c2)cc1` (single isomer, unassigned) [Example 81 Isomer 1, 7-(3,4-Dichlorophenyl)-N-(4-methoxyphenylsulfonyl)-N,2,5-trimethyl-4,7-dihydropyrazolo[1,5-a]pyrimidine-6-carboxamide] displayed an inhibition at 0.3 µM of 16%.
Compound `CC1=C(C(=O)N(C)S(=O)(=O)C(C)C)C(c2ccc(Cl)c(Cl)c2)n2nc(C(F)(F)F)cc2N1` (single isomer, unassigned) [Example 96 Isomer 1, 7-(3,4-Dichlorophenyl)-N-(isopropylsulfonyl)-N,5-dimethyl-2-(trifluoromethyl)-4,7-dihydropyrazolo[1,5-a]pyrimidine-6-carboxamide] showed an inhibition at 0.3 µM of 57%.
Compound `CC1=C(S(=O)(=O)NCc2ccccc2)C(c2ccc(Cl)cc2)n2nc(C)cc2N1` (single isomer, unassigned) [Example 55 Isomer 1, N-Benzyl-7-(4-chlorophenyl)-2,5-dimethyl-4,7-dihydropyrazolo[1,5-a]pyrimidine-6-sulfonamide] displayed an inhibition at 0.3 µM of 22.9%.
Still for that read-out and setting: in the case of `COc1ccc(S(=O)(=O)C2=C(C)Nc3cc(C(F)(F)F)nn3C2c2ccc(Cl)cc2)cc1` (single isomer, unassigned) [Example 25 Isomer 1, 7-(4-Chlorophenyl)-6-(4-methoxyphenylsulfonyl)-5-methyl-2-(trifluoromethyl)-4,7-dihydropyrazolo[1,5-a]pyrimidine] it was 85.6%.
On to `CC1=C(S(=O)(=O)N2CCCC2)C(c2ccc(Cl)c(Cl)c2)n2nc(C(F)(F)F)cc2N1` (single isomer, unassigned) [Example 59 Isomer 2, 7-(3,4-Dichlorophenyl)-5-methyl-6-(pyrrolidin-1-ylsulfonyl)-2-(trifluoromethyl)-4,7-dihydropyrazolo[1,5-a]pyrimidine], for which the Kv1.5% inhibition turned out to be 86.4%.
`CC1=C(C(=O)N(C)S(=O)(=O)c2c(C)noc2C)C(c2ccc(Cl)c(Cl)c2)n2nc(C(F)(F)F)cc2N1` (single isomer, unassigned) [Example 95 Isomer 1, 7-(3,4-Dichlorophenyl)-N-(3,5-dimethylisoxazol-4-ylsulfonyl)-N,5-dimethyl-2-(trifluoromethyl)-4,7-dihydropyrazolo[1,5-a]pyrimidine-6-carboxamide] returned an inhibition at 0.3 µM of 91%.
Turning to `CC1=C(C(=O)N(C)S(=O)(=O)c2c(C)noc2C)C(c2ccc(Cl)c(Cl)c2)n2nc(C)cc2N1` (single isomer, unassigned) [Example 94 Isomer 1, 7-(3,4-Dichlorophenyl)-N-(3,5-dimethylisoxazol-4-ylsulfonyl)-N,2,5-trimethyl-4,7-dihydropyrazolo[1,5-a]pyrimidine-6-carboxamide], the inhibition at 0.3 µM turned out to be 80%.
Compound `CC1=C(S(=O)(=O)N2CCCCC2)C(c2ccc(Cl)c(Cl)c2)n2nc(C(F)(F)F)cc2N1` (single isomer, unassigned) [Example 65 Isomer 2, 7-(3,4-Dichlorophenyl)-5-methyl-6-(piperidin-1-ylsulfonyl)-2-(trifluoromethyl)-4,7-dihydropyrazolo[1,5-a]pyrimidine] gave a Kv1.5% inhibition of 78%.
With `CC1=C(C(=O)N(C)S(=O)(=O)c2c(C)noc2C)C(c2ccc(Cl)c(Cl)c2)n2nc(C(F)(F)F)cc2N1` (single isomer, unassigned) [Example 95 Isomer 2, 7-(3,4-Dichlorophenyl)-N-(3,5-dimethylisoxazol-4-ylsulfonyl)-N,5-dimethyl-2-(trifluoromethyl)-4,7-dihydropyrazolo[1,5-a]pyrimidine-6-carboxamide], the Kv1.5% inhibition is reported as 71%.
As for `CCCS(=O)(=O)N(C(=O)C1=C(C)Nc2cc(C(F)(F)F)nn2C1c1ccc(Cl)c(Cl)c1)C1CC1` (racemic) [Example 88, N-Cyclopropyl-7-(3,4-dichlorophenyl)-5-methyl-N-(propylsulfonyl)-2-(trifluoromethyl)-4,7-dihydropyrazolo[1,5-a]pyrimidine-6-carboxamide], the inhibition at 0.3 µM came out at 71%.

Staying with this assay, now noted: given as % inhibition, value given as a concentration in μM; read-out: Kv1.5% inhibition.
For `CC1=C(C(=O)N(C)S(=O)(=O)c2ccccc2)C(c2ccc(Cl)c(Cl)c2)n2nc(C)cc2N1` (racemic) [Example 78, 7-(3,4-Dichlorophenyl)-N,2,5-trimethyl-N-(phenylsulfonyl)-4,7-dihydropyrazolo[1,5-a]pyrimidine-6-carboxamide], the IC50 came to 0.164 µM.

Staying with this assay, now noted: read-out: Kv1.5 IC50.
`CC1=C(S(=O)(=O)c2ccc(F)cc2)C(c2ccc(Cl)cc2)n2nc(C(F)(F)F)cc2N1` (single isomer, unassigned) [Example 27 Isomer 2, 7-(4-Chlorophenyl)-6-(4-fluorophenylsulfonyl)-5-methyl-2-(trifluoromethyl)-4,7-dihydropyrazolo[1,5-a]pyrimidine]: the IC50 is 0.092 µM.
Take `CC1=C(S(=O)(=O)c2ccc(Cl)cc2)C(c2ccc(Cl)c(Cl)c2)n2nccc2N1` (single isomer, unassigned) [Example 2 Isomer 2, 6-(4-Chlorophenylsulfonyl)-7-(3,4-dichlorophenyl)-5-methyl-4,7-dihydropyrazolo[1,5-a]pyrimidine]: the IC50 turned out to be 0.037 µM.
With `CC1=C(S(=O)(=O)c2ccc(C(F)(F)F)cc2)C(c2ccc(Cl)c(Cl)c2)n2nc(C)cc2N1` (single isomer, unassigned) [Example 9 Isomer 1, 7-(3,4-Dichlorophenyl)-2,5-dimethyl-6-(4-(trifluoromethyl)phenylsulfonyl)-4,7-dihydropyrazolo[1,5-a]pyrimidine], the IC50 turned out to be 0.234 µM.
On to `CC1=C(S(=O)(=O)C2CCCCC2)C(c2ccc(Cl)c(Cl)c2)n2nc(C)cc2N1` (single isomer, unassigned) [Example 10 Isomer 1, 6-(Cyclohexylsulfonyl)-7-(3,4-dichlorophenyl)-2,5-dimethyl-4,7-dihydropyrazolo[1,5-a]pyrimidine], for which the IC50 stood at 0.077 µM.
On the same count and under the same terms, to `CC1=C(S(=O)(=O)c2ccc(C)cc2)C(c2ccc(Cl)c(Cl)c2)n2nc(C)cc2N1` (single isomer, unassigned) [Example 5 Isomer 1, 7-(3,4-Dichlorophenyl)-2,5-dimethyl-6-tosyl-4,7-dihydropyrazolo[1,5-a]pyrimidine] belongs 0.048 µM.
For `CCCCS(=O)(=O)C1=C(C)Nc2cc(C(F)(F)F)nn2C1c1ccc(Cl)cc1` (single isomer, unassigned) [Example 30 Isomer 1, 6-(Butylsulfonyl)-7-(4-chlorophenyl)-5-methyl-2-(trifluoromethyl)-4,7-dihydropyrazolo[1,5-a]pyrimidine], the IC50 stood at 0.21 µM.
With `CC1=C(S(=O)(=O)c2ccccc2)C(c2ccc(F)cc2)n2nc(C(F)(F)F)cc2N1` (single isomer, unassigned) [Example 36 Isomer 1, 7-(4-Fluorophenyl)-5-methyl-6-(phenylsulfonyl)-2-(trifluoromethyl)-4,7-dihydropyrazolo[1,5-a]pyrimidine], the IC50 stood at 0.208 µM.
